Several values for one entry are separate records, joined by “and”; a condition that tells them apart may be missing. Identical values can stand only once. Activity calls are given as the source filed them.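 Rule for the calls: active = IC50 at or below 10 µM; inactive = IC50 above 10 µM.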

For orientation: IC50 means the concentration that inhibits the measured activity by half.

The assay has as its system NIH 3T3 viability, CellTiter-Glo ATP luminescence. Put plainly: 3T3 cell viability loss – luminescence, dose response, cytotoxicity control for TPT1 inhibitor project, late-stage follow-up (AID 434934).
Regarding `OC(Cn1cncn1)(Cn1cncn1)c1ccc(F)cc1F`, the IC50 was > 26.5 µM (inactive). In the case of `Cc1cc(C)n(Cc2ccc(C(=O)NN=Cc3ccc(-c4ccc([N+](=O)[O-])cc4)o3)o2)n1`, the IC50 was > 79.4 µM (inactive).

Take `COc1ccc(OC)c(N2C(=O)/C(=C/c3ccco3)C(=O)NC2=S)c1`: the IC50 is 73.9 µM (inactive). Then `CC1=C(C#N)C(=O)N(C2CCS(=O)(=O)C2)C(=O)/C1=C\c1ccco1` (stereo not given), with 20.4 µM (inactive); and `O=c1oc2c(O)c(O)cc3c(=O)oc4c(O)c(O)cc1c4c23`, with > 26.5 µM (inactive); and `Cc1ccccc1N1C(=O)/C(=C/c2ccco2)C(=O)NC1=S`, with 46.1 µM (inactive) and 34.3 µM (inactive). Regarding `NC(=O)c1cc[n+](CC2=C(C(=O)O)N3C(=O)[C@@H](NC(=O)C(c4ccccc4)S(=O)(=O)O)[C@H]3SC2)cc1` (stereo not given in full), the IC50 was > 79.4 µM (inactive). As to `Cc1ccc(N2C(=O)NC(=O)/C(=C\c3ccc([N+](=O)[O-])o3)C2=O)cc1`, the IC50 was 23.2 µM (inactive). For the compound `NS(=O)(=O)c1cc(C(=O)NC2CCSc3ccccc32)ccc1Cl` (stereo not given), the IC50 is > 79.4 µM (inactive). As for `Cc1[nH]n(-c2ccc(S(=O)(=O)O)cc2)c(=O)c1N[N-]c1ccc(C2=CC(=O)/C(=N\[N-]c3ccc4c(S(=O)(=O)O)cc(S(=O)(=O)O)c(N)c4c3O)C=C2)cc1O.[Cu+].[Cu+]`, the IC50 is 1.82 µM.

These data come from PubChem BioAssay AID434934 (The Scripps Research Institute Molecular Screening Center, 2010).
